Results taken from ChEMBL document CHEMBL1201862, “PubChem BioAssay data set” (2004).
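These data come from cells grown in 96-well plates and exposed to compound for 48 hours at five concentrations. Abbreviation: GI50, concentration required for 50% inhibition of growth.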 The source made the active and inactive calls. Cut-off read from the data, not from the text of the source: active = GI50 up to about 1.1 µM and inactive = higher.

Key:
Test in all cases: NCI-60 cell line screen, 48 h
[1] = system: HCT-116
[2] = system: HL-60
[3] = system: SW-620
[4] = system: SK-MEL-28
[5] = system: SF-539
[6] = system: A498
[7] = system: BT-549
[8] = system: MCF7
[9] = system: PC-3
[10] = system: SK-OV-3
[11] = system: NCI/ADR-RES
[12] = system: SNB-75
[13] = system: UO-31
[14] = system: SF-268
[15] = system: HT-29
[16] = system: NCI-H460
[17] = system: Hs-578T
[18] = system: K562
[19] = system: UACC-257
[20] = system: CAKI-1

Row | Compound | GI50 [1] | GI50 [2] | GI50 [3] | GI50 [4] | GI50 [5] | GI50 [6] | GI50 [7] | GI50 [8] | GI50 [9] | GI50 [10] | GI50 [11] | GI50 [12] | GI50 [13] | GI50 [14] | GI50 [15] | GI50 [16] | GI50 [17] | GI50 [18] | GI50 [19] | GI50 [20]
1 | CN(C)CCNC(=O)Cn1cc([N+](=O)[O-])c(=O)c2ccccc21 | > 100 µM (inactive) | > 100 µM (inactive) | > 100 µM (inactive) | > 100 µM (inactive) | > 100 µM (inactive) | > 100 µM (inactive) | > 100 µM (inactive) | > 100 µM (inactive) | > 100 µM (inactive) | > 100 µM (inactive) | > 100 µM (inactive) | 58.3 µM (inactive) | > 100 µM (inactive) | > 100 µM (inactive) | > 100 µM (inactive) | > 100 µM (inactive) | > 100 µM (inactive) | > 100 µM (inactive) | > 100 µM (inactive) | > 100 µM (inactive)
2 | O=Cc1ccc(-c2ccc(-c3ccc(CO)s3)o2)s1 | 0.841 µM (active) | 3.85 µM (inactive) | 2.22 µM (inactive) | > 35.9 µM (inactive) | 17.9 µM (inactive) | 0.104 µM (active) | 6.24 µM (inactive) | 0.348 µM (active) | 28.3 µM (inactive) | 19.7 µM (inactive) | 10.6 µM (inactive) | 20.2 µM (inactive) | 15.6 µM (inactive) | 18.6 µM (inactive) | 7.83 µM (inactive) | 0.101 µM (active) | 16 µM (inactive) | 1.43 µM (inactive) | 0.364 µM (active) | 0.186 µM (active)
3 | O=C1Nc2c(Cl)cc(Cl)cc2/C1=N/Nc1ccccc1[N+](=O)[O-] | 38.2 µM (inactive) | 16.6 µM (inactive) | > 100 µM (inactive) | 75.7 µM (inactive) | 13 µM (inactive) | 55.7 µM (inactive) | 9.68 µM (inactive) | > 100 µM (inactive) | 40.8 µM (inactive) | 30.1 µM (inactive) | 40.3 µM (inactive) | 4.28 µM (inactive) | > 100 µM (inactive) | 25.1 µM (inactive) | > 100 µM (inactive) | 54.5 µM (inactive) | 8.32 µM (inactive) | 38.6 µM (inactive) | > 100 µM (inactive) | 39.4 µM (inactive)
4 | CCOc1cc2c(NCCCN(CCO)CCO)ncnc2c(OCC)c1OCC | > 100 µM (inactive) | > 89.1 µM (inactive) | > 100 µM (inactive) | > 62.5 µM (inactive) | > 100 µM (inactive) | > 73.5 µM (inactive) | > 76.4 µM (inactive) | > 100 µM (inactive) | > 100 µM (inactive) | > 100 µM (inactive) | > 100 µM (inactive) | > 74.8 µM (inactive) | > 100 µM (inactive) | > 100 µM (inactive) | > 65.6 µM (inactive) | > 100 µM (inactive) | 82.2 µM (inactive) | > 100 µM (inactive) | > 83.2 µM (inactive) | > 100 µM (inactive)
5 | CN1CCCC(C(=O)OCC(=O)C2(O)CCC3C4CCC5=CC(=O)CCC5(C)C4C(O)CC32C)C1 (stereo not given) | 8.97 µM (inactive) | 3.69 µM (inactive) | 6.27 µM (inactive) | 17.7 µM (inactive) | 2.12 µM (inactive) | 16.4 µM (inactive) | 16.7 µM (inactive) | 12.6 µM (inactive) | 11.4 µM (inactive) | 16.3 µM (inactive) | 20 µM (inactive) | 4.85 µM (inactive) | 8.11 µM (inactive) | 20.9 µM (inactive) | 10.8 µM (inactive) | 11.5 µM (inactive) | 35.3 µM (inactive) | 9.12 µM (inactive) | 18.3 µM (inactive) | 24.2 µM (inactive)
6 | O=C1/C(=C\c2ccc(F)cc2)CCOc2c1ccc1ccccc21 | 3.49 µM (inactive) | 14.9 µM (inactive) | 14.4 µM (inactive) | 23.3 µM (inactive) | 21.9 µM (inactive) | 27.4 µM (inactive) | 25.6 µM (inactive) | 10.4 µM (inactive) | 33 µM (inactive) | 36.6 µM (inactive) | 16.3 µM (inactive) | 12.4 µM (inactive) | > 55.2 µM (inactive) | 23.4 µM (inactive) | 17.4 µM (inactive) | 25.1 µM (inactive) | 40.3 µM (inactive) | 6.68 µM (inactive) | 19.5 µM (inactive) | 21.1 µM (inactive)
7 | C/C=C1/C[C@@H](C)[C@@](C)(O)C(=O)OCC2=CC[N+]3([O-])CC[C@@H](OC1=O)[C@@H]23 (stereo not given in full) [SENECIONINE N-OXIDE] | > 100 µM (inactive) | > 100 µM (inactive) | > 100 µM (inactive) | > 100 µM (inactive) | > 100 µM (inactive) | > 100 µM (inactive) | > 100 µM (inactive) | > 100 µM (inactive) | > 100 µM (inactive) | > 100 µM (inactive) | > 100 µM (inactive) | > 100 µM (inactive) | > 100 µM (inactive) | > 100 µM (inactive) | > 100 µM (inactive) | > 100 µM (inactive) | > 100 µM (inactive) | 0.0482 µM (active) | > 100 µM (inactive) | > 100 µM (inactive)
8 | COC(=O)c1c[nH]c2c1-c1cc(C(=O)OCc3ccccc3)n(S(=O)(=O)c3ccc(C)cc3)c1C(=O)C2=O | 0.228 µM (active) | 0.144 µM (active) | 0.214 µM (active) | 0.12 µM (active) | 0.197 µM (active) | 1.85 µM (inactive) | 0.19 µM (active) | 0.184 µM (active) | 0.283 µM (active) | 1.24 µM (inactive) | 0.45 µM (active) | 0.189 µM (active) | 0.327 µM (active) | 0.234 µM (active) | 0.473 µM (active) | 1.24 µM (inactive) | 0.578 µM (active) | 4.99 µM (inactive) | 0.156 µM (active) | 1.31 µM (inactive)
9 | CCCCC/C=C\C=C1\C(=O)C=C[C@@H]1C/C=C\CCCC(=O)O | 1.23 µM (inactive) | 2.41 µM (inactive) | 2.8 µM (inactive) | 6.65 µM (inactive) | 5.82 µM (inactive) | 11.7 µM (inactive) | 2.05 µM (inactive) | 4.09 µM (inactive) | 1.84 µM (inactive) | 7.06 µM (inactive) | 1.24 µM (inactive) | 9.66 µM (inactive) | 6.31 µM (inactive) | 4.37 µM (inactive) | 5.05 µM (inactive) | 6.04 µM (inactive) | 2.47 µM (inactive) | 1.62 µM (inactive) | 7.29 µM (inactive) | 3.37 µM (inactive)
10 | CCCCN1C(=O)C2Cc3c([nH]c4ccccc34)C(c3cccc(O)c3)N2C1=O (stereo not given) | 18.7 µM (inactive) | 22.8 µM (inactive) | 19.9 µM (inactive) | 19 µM (inactive) | 18.8 µM (inactive) | 18.5 µM (inactive) | 19 µM (inactive) | 18.3 µM (inactive) | 18.5 µM (inactive) | 16.1 µM (inactive) | 18.5 µM (inactive) | 18.5 µM (inactive) | 17.5 µM (inactive) | 19.1 µM (inactive) | 20.9 µM (inactive) | 20 µM (inactive) | 27.9 µM (inactive) | 20.2 µM (inactive) | 18.7 µM (inactive) | 18.7 µM (inactive)
11 | Brc1ccc(-c2ccc(-c3ccc(-c4ccc(Br)s4)s3)s2)s1 | > 100 µM (inactive) | > 100 µM (inactive) | > 100 µM (inactive) | > 100 µM (inactive) | > 100 µM (inactive) | > 100 µM (inactive) | > 100 µM (inactive) | > 100 µM (inactive) | > 100 µM (inactive) | > 100 µM (inactive) | > 100 µM (inactive) | > 100 µM (inactive) | > 100 µM (inactive) | > 100 µM (inactive) | > 100 µM (inactive) | > 100 µM (inactive) | > 100 µM (inactive) | > 100 µM (inactive) | > 100 µM (inactive) | > 100 µM (inactive)
